According to the supplement of paper PMC5908809:

Experiments:
NK-YS (IL-2 2.5 ng/mL) [1] = test: drug sensitivity score (DSS) (DSS units); higher = more sensitive; extreme values may be limits of the assay; settings: 72 h
[2] = tested on: normal primary NK cells, pool 3 (3 donors) (IL-2 2.5 ng/mL); test: as above; settings: 72 h
NKL (IL-2 2.5 ng/mL) [3] = test: as above; settings: 72 h
NK-92 (IL-2 2.5 ng/mL) [4] = test: as above; settings: 72 h
[5] = tested on: normal primary NK cells, pool 1 (3 donors) (IL-2 2.5 ng/mL); test: as above; settings: 72 h
[6] = tested on: normal primary NK cells, pool 1 (3 donors), resting (IL-2 0 ng/mL); test: as above; settings: 72 h
[7] = tested on: normal primary NK cells, pool 2 (3 donors) (IL-2 2.5 ng/mL); test: as above; settings: 72 h
IMC-1 (IL-2 20 ng/mL) [8] = test: as above; settings: 72 h
YT (IL-2 2.5 ng/mL) [9] = test: as above; settings: 72 h
KHYG-1 (IL-2 2.5 ng/mL) [10] = test: as above; settings: 72 h
KAI3 (IL-2 2.5 ng/mL) [11] = test: as above; settings: 72 h
DERL-7 (IL-2 2.5 ng/mL) [12] = test: as above; settings: 72 h
SNK-6 (IL-2 2.5 ng/mL) [13] = test: as above; settings: 72 h
NK-YS (IL-2 2.5 ng/mL) [14] = test: percent inhibition of viability; higher = more inhibition; settings: 72 h
[15] = tested on: normal primary NK cells, pool 3 (3 donors) (IL-2 2.5 ng/mL); test: as above; settings: 72 h
NKL (IL-2 2.5 ng/mL) [16] = test: as above; settings: 72 h
NK-92 (IL-2 2.5 ng/mL) [17] = test: as above; settings: 72 h
[18] = tested on: normal primary NK cells, pool 1 (3 donors) (IL-2 2.5 ng/mL); test: as above; settings: 72 h
[19] = tested on: normal primary NK cells, pool 1 (3 donors), resting (IL-2 0 ng/mL); test: as above; settings: 72 h
[20] = tested on: normal primary NK cells, pool 2 (3 donors) (IL-2 2.5 ng/mL); test: as above; settings: 72 h
IMC-1 (IL-2 20 ng/mL) [21] = test: as above; settings: 72 h
YT (IL-2 2.5 ng/mL) [22] = test: as above; settings: 72 h
KHYG-1 (IL-2 2.5 ng/mL) [23] = test: as above; settings: 72 h
KAI3 (IL-2 2.5 ng/mL) [24] = test: as above; settings: 72 h
DERL-7 (IL-2 2.5 ng/mL) [25] = test: as above; settings: 72 h
SNK-6 (IL-2 2.5 ng/mL) [26] = test: as above; settings: 72 h
[27] = tested on: normal NK cells expanded with K562-aAPC; test: drug sensitivity score (DSS) (DSS units); higher = more sensitive; extreme values may be limits of the assay; settings: 72 h; IL-2 2.5 ng/mL
Experimental: (§1)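 Drug sensitivity and resistance testing on K562-aAPC-expanded normal NK cells: 5 concentrations (10-fold steps over a 10,000-fold range), 72 h at 37 °C, viability by CellTiter-Glo normalised to DMSO and benzethonium chloride controls; DSS from the fitted curve.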

[28] = tested on: normal NK cells expanded with K562-aAPC; test: percent inhibition of viability; higher = more inhibition; settings: 72 h, IL-2 2.5 ng/mL
Experimental: as §1

O=C(c1ccc(OCCN2CCCCC2)cc1)c1c(-c2ccc(O)cc2)sc2cc(O)ccc12 [Raloxifene] (max concentration tested 10000 nM)
Settings | drug sensitivity score
DERL-7 (IL-2 2.5 ng/mL) [12] | 6.02
IMC-1 (IL-2 20 ng/mL) [8] | 0
KAI3 (IL-2 2.5 ng/mL) [11] | 6.04
KHYG-1 (IL-2 2.5 ng/mL) [10] | 4.74
NK-92 (IL-2 2.5 ng/mL) [4] | 4.99
NK-YS (IL-2 2.5 ng/mL) [1] | 2.92
NKL (IL-2 2.5 ng/mL) [3] | 4.58
SNK-6 (IL-2 2.5 ng/mL) [13] | 2.49
YT (IL-2 2.5 ng/mL) [9] | 4.39
[2] | 0.74
[5] | 0.41
[6] | 1.08
[7] | 1.67
[27] | 4.52

percent inhibition of viability [%]
Settings | 1 nM | 10 nM | 100 nM | 1000 nM | 10000 nM
DERL-7 (IL-2 2.5 ng/mL) [25] | -6.41 | 2.29 | 1.8 | 13.7 | 68.8
IMC-1 (IL-2 20 ng/mL) [21] | 0.84 | 1.43 | 3.84 | 8.59 | 10.4
KAI3 (IL-2 2.5 ng/mL) [24] | -6.87 | -0.15 | 5.98 | 4.92 | 96.1
KHYG-1 (IL-2 2.5 ng/mL) [23] | -4.91 | 3.37 | 0.98 | 11 | 54.9
NK-92 (IL-2 2.5 ng/mL) [17] | 1.94 | 6.91 | -0.59 | -1.98 | 92.6
NK-YS (IL-2 2.5 ng/mL) [14] | 0.85 | -3.33 | 4.79 | 5.35 | 40.5
NKL (IL-2 2.5 ng/mL) [16] | 1.76 | 7.99 | -6.69 | 11.2 | 52.2
SNK-6 (IL-2 2.5 ng/mL) [26] | -9.5 | -3.4 | -9.29 | -36.4 | 67.1
YT (IL-2 2.5 ng/mL) [22] | -1.19 | 5.28 | -0.98 | 1 | 77
[15] | -5.87 | -1.12 | 5.04 | 8.98 | 16.6
[18] | 1.01 | -6.07 | 1.09 | -7.43 | 20.9
[19] | 2.49 | -4.47 | -6.62 | -34 | 38.5
[20] | -6.02 | -3.78 | 1.06 | 2.77 | 29.1
[28] | -3.9 | -1.26 | 0.77 | 10.2 | 53.2

N#Cc1ccc(COC[C@H]2O[C@@H](n3c(NCc4ccc(Cl)c(Cl)c4)nc4c(N)ncnc43)[C@H](O)[C@@H]2O)cc1 (max concentration tested 10000 nM)
Settings | drug sensitivity score
DERL-7 (IL-2 2.5 ng/mL) [12] | 2.63
IMC-1 (IL-2 20 ng/mL) [8] | 4.46
KAI3 (IL-2 2.5 ng/mL) [11] | 3.83
KHYG-1 (IL-2 2.5 ng/mL) [10] | 5.29
NK-92 (IL-2 2.5 ng/mL) [4] | 3.57
NK-YS (IL-2 2.5 ng/mL) [1] | 6.65
NKL (IL-2 2.5 ng/mL) [3] | 0
SNK-6 (IL-2 2.5 ng/mL) [13] | 5.74
YT (IL-2 2.5 ng/mL) [9] | 5.18
[2] | 0
[5] | 0.69
[6] | 3.54
[7] | 0.06
[27] | 0.38

percent inhibition of viability [%]
Settings | 1 nM | 10 nM | 100 nM | 1000 nM | 10000 nM
DERL-7 (IL-2 2.5 ng/mL) [25] | 4.78 | 2.63 | 2.42 | 7.67 | 32.1
IMC-1 (IL-2 20 ng/mL) [21] | -1.92 | -0.39 | -4.01 | -16.8 | 97.2
KAI3 (IL-2 2.5 ng/mL) [24] | 1.01 | 1.02 | -1.36 | 17.5 | 34.8
KHYG-1 (IL-2 2.5 ng/mL) [23] | -2.11 | -1.26 | 0.87 | 11.4 | 62.4
NK-92 (IL-2 2.5 ng/mL) [17] | -0.8 | 4.51 | -4.4 | 7.42 | 45.2
NK-YS (IL-2 2.5 ng/mL) [14] | -1.65 | 1.3 | -0.1 | 21.7 | 64.4
NKL (IL-2 2.5 ng/mL) [16] | 4.1 | 5.28 | -8.68 | 9.7 | 9.11
SNK-6 (IL-2 2.5 ng/mL) [26] | 5.72 | 12.3 | -10.3 | 21.8 | 52.5
YT (IL-2 2.5 ng/mL) [22] | 2.07 | 0.4 | -2.55 | 12.2 | 59
[15] | -13.6 | -13.5 | -14 | -9.19 | -0.46
[18] | -6.38 | -11.1 | 5.83 | 5.84 | 18.5
[19] | -3.74 | -9.12 | 7.84 | 15.3 | 41
[20] | -10.6 | -2.26 | -3.97 | -0.12 | 12.3
[28] | -3.56 | -7.9 | -9.32 | 1.88 | 14.8

O=C(Nc1cccnc1)N1CCC(Cc2cccc(Oc3ccc(C(F)(F)F)cn3)c2)CC1 [PF-3845] (max concentration tested 10000 nM)
Settings | drug sensitivity score
DERL-7 (IL-2 2.5 ng/mL) [12] | 2.45
IMC-1 (IL-2 20 ng/mL) [8] | 2.22
KAI3 (IL-2 2.5 ng/mL) [11] | 0.99
KHYG-1 (IL-2 2.5 ng/mL) [10] | 4
NK-92 (IL-2 2.5 ng/mL) [4] | 2.38
NK-YS (IL-2 2.5 ng/mL) [1] | 5.91
NKL (IL-2 2.5 ng/mL) [3] | 6.2
SNK-6 (IL-2 2.5 ng/mL) [13] | 0.86
YT (IL-2 2.5 ng/mL) [9] | 3.29
[2] | 0.32
[5] | 3.87
[6] | 3.74
[7] | 2
[27] | 0

percent inhibition of viability [%]
Settings | 1 nM | 10 nM | 100 nM | 1000 nM | 10000 nM
DERL-7 (IL-2 2.5 ng/mL) [25] | 3.63 | -4.44 | 5.89 | 0.51 | 46.1
IMC-1 (IL-2 20 ng/mL) [21] | 0.9 | -0.47 | 4.7 | 13.8 | 26.2
KAI3 (IL-2 2.5 ng/mL) [24] | -1.12 | -6.82 | 4.46 | 0.3 | 25
KHYG-1 (IL-2 2.5 ng/mL) [23] | -4.25 | -6.89 | -4.44 | 4.55 | 60.7
NK-92 (IL-2 2.5 ng/mL) [17] | -1.76 | -21.3 | -8.96 | 4.25 | 35.6
NK-YS (IL-2 2.5 ng/mL) [14] | 4.37 | -3.27 | 0.47 | 10.5 | 75
NKL (IL-2 2.5 ng/mL) [16] | -5.58 | -15.9 | -8.48 | 16.5 | 66.2
SNK-6 (IL-2 2.5 ng/mL) [26] | -10 | -1.35 | -9.77 | -1.56 | 25.3
YT (IL-2 2.5 ng/mL) [22] | -2.27 | -9.8 | 1.6 | 5.87 | 44.7
[15] | -11.4 | -5.5 | -11.2 | -10.4 | 19.9
[18] | -3.8 | -8.73 | -11.2 | 2.66 | 64.3
[19] | -8.45 | -13.6 | -17.7 | -4.4 | 74
[20] | -12.4 | 3.71 | -1.82 | -3.09 | 43.9
[28] | -4.39 | -6.94 | -8.54 | -9.15 | -10
